Test results published in patent US7205433B2, “Crystal of amino acid ester salt and process for producing the same” (Ajinomoto Co., Inc., priority 2002, dated 2007).

How the values were obtained:
Type in all cases: physicochemical
[1] = Experimental Example 4: comparison of hygroscopicity by weight gain over time (40 to 46% RH); settings: 24° C.
Procedure: The L-Ala-OEt HCl salt, L-Ala-OEt MsOH salt, L-Ala-OEt BsOH salt, L-Ala-OEt 4-CBS salt, L-Ala-OEt 4-EBS salt, L-Ala-OEt 2,4-DMBS salt, and L-Ala-OEt 2,5-DMBS salt were measured in an amount of about 0.3 g each, left standing in a thermostatic chamber at a temperature of 24° C. and a humidity of 40 to 46% RH, and the hygroscopicity was compared based on the weight gain with the lapse of time. A part of the crystal of the L-Ala-OEt HCl salt was liquefied in 30 minutes, and the liquefied portion increased thereafter with the lapse of time. After 100 minutes, the whole mass became like a sherbet.

[2] = Experimental Example 5: comparison of hygroscopicity by weight gain over time (60 to 66% RH); settings: 24 EC
Procedure: The L-Ala-OMe HCl salt, L-Ala-OEt MsOH salt, L-Ala-OEt BsOH salt, L-Ala-OEt 4-CBS salt, L-Ala-OEt 4-EBS salt, L-Ala-OEt 2,4-DMBS salt, and L-Ala-OEt 2,5-DMBS salt were measured in an amount of about 0.3 g each, left standing in a thermostatic chamber at a temperature of 24 EC and a humidity of 60 to 66% RH, and the hygroscopicity was compared based on the weight gain with the lapse of time.

[3] = Experimental Example 2: comparison of hygroscopicity by weight gain over time (62 to 64% RH); settings: 24° C.
Procedure: In the same manner as in Experimental Example 1, L-Ala-OEt MsOH salt and L-Ala-OMe HCl salt were measured into a glass container in an amount of 0.6 g each, left under conditions of temperature: 24° C., humidity: 62 to 64% RH, and then the hygroscopicity was compared based on the weight gain with the lapse of time.

[4] = Experimental Example 1: comparison of hygroscopicity by weight gain over time (44 to 45% RH); settings: 22 to 24° C.
Procedure: L-Ala-OEt HCl salt and L-Ala-OEt MsOH salt were measured into in a glass container in an amount of 1.6 g each, dried in vacuo at 30° C. for 5 hours, left under conditions of temperature: 22 to 24° C., humidity: 44 to 45% RH, and then the hygroscopicity was compared based on the weight gain over the lapse of time. […] The liquefied portion increased with the lapse of time, and the entire salt became liquid 750 minutes later with no observable crystal.

[5] = Comparative Example 9: crystals left standing at room temperature; settings: left standing at room temperature for a while
Source text: The crystals were separated and dried to give L-alanine methyl ester benzenesulfonate (L-Ala-OMe BsOH salt) crystals. The crystals were left standing at room temperature for a while.

CCOC(=O)[C@H](C)N.CS(=O)(=O)O [L-Ala-OEt MsOH salt, L-alanine ethyl ester methanesulfonate]
weight increase rate (%) ([1]; 0 minutes): 0.00%
weight increase rate (%) ([1]; 15 minutes): 0.03%
weight increase rate (%) ([1]; 30 minutes): 0.03%
weight increase rate (%) ([1]; 45 minutes): 0.00%
weight increase rate (%) ([1]; 60 minutes): 0.19%
weight increase rate (%) ([1]; 75 minutes): 0.35%
weight increase rate (%) ([1]; 90 minutes): 0.35%
weight increase rate (%) ([1]; 120 minutes): 0.42%
weight increase rate (%) ([1]; 150 minutes): 0.39%
weight increase rate (%) ([1]; 180 minutes): 0.55%
weight increase rate (%) ([2]; 0 minutes): 0.00%
weight increase rate (%) ([2]; 10 minutes): 0.32%
weight increase rate (%) ([2]; 20 minutes): 0.35%
weight increase rate (%) ([2]; 35 minutes): 0.38%
weight increase rate (%) ([2]; 50 minutes): 0.38%
weight increase rate (%) ([2]; 65 minutes): 0.41%
weight increase rate (%) ([2]; 80 minutes): 0.44%
weight increase rate (%) ([2]; 95 minutes): 0.44%
weight increase rate (%) ([2]; 110 minutes): 0.48%
weight increase rate (%) ([2]; 125 minutes): 0.44%
weight increase rate (%) ([2]; 140 minutes): 0.48%
weight increase rate (%) ([2]; 155 minutes): 0.48%
weight increase rate (%) ([2]; 170 minutes): 0.51%
weight increase rate (%) ([2]; 185 minutes): 0.48%
weight increase rate (%) ([2]; 200 minutes): 0.51%
weight increase rate (% relative to initial weight) ([3]; 0 minutes): 0.00%
weight increase rate (% relative to initial weight) ([3]; 10 minutes): 0.18%
weight increase rate (% relative to initial weight) ([3]; 20 minutes): 0.26%
weight increase rate (% relative to initial weight) ([3]; 35 minutes): 0.39%
weight increase rate (% relative to initial weight) ([3]; 50 minutes): 0.53%
weight increase rate (% relative to initial weight) ([3]; 65 minutes): 0.55%
weight increase rate (% relative to initial weight) ([3]; 80 minutes): 0.63%
weight increase rate (% relative to initial weight) ([3]; 95 minutes): 0.70%
weight increase rate (% relative to initial weight) ([3]; 110 minutes): 0.78%
weight increase rate (% relative to initial weight) ([3]; 125 minutes): 0.94%
weight increase rate (% relative to initial weight) ([3]; 140 minutes): 1.01%
weight increase rate (% relative to initial weight) ([3]; 155 minutes): 1.00%
weight increase rate (% relative to initial weight) ([3]; 170 minutes): 1.13%
weight increase rate (% relative to initial weight) ([3]; 185 minutes): 1.26%
weight increase rate (% relative to initial weight) ([3]; 200 minutes): 1.32%
change in weight with the lapse of time ([3]; up to 200 minutes): not much change in weight
liquefaction ([3]; up to 200 minutes): liquefaction was not observed
weight increase rate (% relative to initial weight) ([4]; 0 minutes): 0.00%
weight increase rate (% relative to initial weight) ([4]; 1 minutes): 0.08%
weight increase rate (% relative to initial weight) ([4]; 2 minutes): 0.11%
weight increase rate (% relative to initial weight) ([4]; 3 minutes): 0.17%
weight increase rate (% relative to initial weight) ([4]; 4 minutes): 0.17%
weight increase rate (% relative to initial weight) ([4]; 6 minutes): 0.23%
weight increase rate (% relative to initial weight) ([4]; 10 minutes): 0.36%
weight increase rate (% relative to initial weight) ([4]; 15 minutes): 0.41%
weight increase rate (% relative to initial weight) ([4]; 25 minutes): 0.48%
weight increase rate (% relative to initial weight) ([4]; 35 minutes): 0.56%
weight increase rate (% relative to initial weight) ([4]; 50 minutes): 0.58%
weight increase rate (% relative to initial weight) ([4]; 60 minutes): 0.59%
weight increase rate (% relative to initial weight) ([4]; 75 minutes): 0.63%
weight increase rate (% relative to initial weight) ([4]; 90 minutes): 0.57%
weight increase rate (% relative to initial weight) ([4]; 120 minutes): 0.58%
weight increase rate (% relative to initial weight) ([4]; 150 minutes): 0.58%
weight increase rate (% relative to initial weight) ([4]; 180 minutes): 0.61%
weight increase rate (% relative to initial weight) ([4]; 750 minutes): 1.16%
change in weight with the lapse of time ([4]; up to 750 minutes): almost no change in weight
liquefaction ([4]; up to 750 minutes): liquefaction was not observed

COC(=O)[C@H](C)N.O=S(=O)(O)c1ccccc1 [L-Ala-OMe BsOH salt, L-alanine methyl ester benzenesulfonate]
stability of the crystals [5]: the crystals were liquefied and failed to provide stable crystals
